Results as given in the CheMixHub viscosity set.
Where “and” joins values, the source holds several entries; their conditions need not be identical. Equal entries are not always repeated. ± gives the uncertainty stated by the source.

Assay: xn = mol fraction of the nth substance listed

OC[C@H]1O[C@@](CO)(O[C@H]2O[C@H](CO)[C@@H](O)[C@H](O)[C@H]2O)[C@@H](O)[C@@H]1O + O
Conditions	viscosity
293.15 K, 101 kPa, x1 = 0.00581	1.26 ± 0.15 mPa·s and 1.27 ± 0.16 mPa·s
293.15 K, 101 kPa, x1 = 0.013	1.96 ± 0.24 mPa·s
293.15 K, 101 kPa, x1 = 0.0221	3.21 ± 0.39 mPa·s
293.15 K, 101 kPa, x1 = 0.0339	6.2 ± 0.75 mPa·s
293.15 K, 101 kPa, x1 = 0.05	15.04 ± 1.8 mPa·s and 15.1 ± 1.9 mPa·s
293.15 K, 101 kPa, x1 = 0.0732	56.76 ± 6.8 mPa·s and 76.48 ± 9.2 mPa·s
293.16 K, 101.3 kPa, x1 = 0.013	1.96 ± 0.057 mPa·s
293.16 K, 101.3 kPa, x1 = 0.073	56.5 ± 1.6 mPa·s
298.15 K, 100 kPa, x1 = 0.0009	1.035 ± 0.0084 mPa·s
298.15 K, 100 kPa, x1 = 0.001818	0.98 ± 0.02 mPa·s
298.15 K, 100 kPa, x1 = 0.004482	1.104 ± 0.023 mPa·s
298.15 K, 100 kPa, x1 = 0.007149	1.222 ± 0.026 mPa·s
298.15 K, 100 kPa, x1 = 0.008888	1.295 ± 0.027 mPa·s
298.15 K, 101 kPa, x1 = 0.003	1.03 ± 0.011 mPa·s
298.15 K, 101 kPa, x1 = 0.0058	1.194 ± 0.012 mPa·s
298.15 K, 101 kPa, x1 = 0.00581	1.13 ± 0.14 mPa·s
298.15 K, 101 kPa, x1 = 0.013	1.715 ± 0.018 mPa·s and 1.7 ± 0.2 mPa·s
298.15 K, 101 kPa, x1 = 0.017	2.15 ± 0.023 mPa·s
298.15 K, 101 kPa, x1 = 0.0221	2.65 ± 0.32 mPa·s
298.15 K, 101 kPa, x1 = 0.0339	5.17 ± 0.62 mPa·s
298.15 K, 101 kPa, x1 = 0.05	11.49 ± 1.4 mPa·s and 11.8 ± 1.5 mPa·s
298.15 K, 101 kPa, x1 = 0.0732	43.88 ± 5.3 mPa·s and 47.98 ± 5.8 mPa·s
303.15 K, 100 kPa, x1 = 0.0009	0.944 ± 0.0081 mPa·s
303.16 K, 101.3 kPa, x1 = 0.013	1.504 ± 0.042 mPa·s
303.16 K, 101.3 kPa, x1 = 0.073	33.78 ± 0.92 mPa·s
308.15 K, 100 kPa, x1 = 0.0009	0.8578 ± 0.0078 mPa·s
308.15 K, 100 kPa, x1 = 0.001818	0.789 ± 0.017 mPa·s
308.15 K, 100 kPa, x1 = 0.002681	0.822 ± 0.018 mPa·s
308.15 K, 100 kPa, x1 = 0.003594	0.855 ± 0.018 mPa·s
308.15 K, 100 kPa, x1 = 0.004482	0.886 ± 0.019 mPa·s
308.15 K, 100 kPa, x1 = 0.00626	0.949 ± 0.02 mPa·s
308.15 K, 100 kPa, x1 = 0.007149	0.978 ± 0.021 mPa·s
308.15 K, 100 kPa, x1 = 0.008888	1.035 ± 0.022 mPa·s
308.15 K, 101 kPa, x1 = 0.001814	0.712 ± 0.015 mPa·s
308.15 K, 101 kPa, x1 = 0.003	0.822 ± 0.009 mPa·s
308.15 K, 101 kPa, x1 = 0.003622	0.777 ± 0.016 mPa·s
308.15 K, 101 kPa, x1 = 0.0058	0.949 ± 0.01 mPa·s
308.15 K, 101 kPa, x1 = 0.00581	0.89 ± 0.11 mPa·s and 0.92 ± 0.11 mPa·s
308.15 K, 101 kPa, x1 = 0.007213	0.915 ± 0.02 mPa·s
308.15 K, 101 kPa, x1 = 0.0092	1.117 ± 0.012 mPa·s
308.15 K, 101 kPa, x1 = 0.013	1.337 ± 0.014 mPa·s and 1.35 ± 0.16 mPa·s
308.15 K, 101 kPa, x1 = 0.01428	1.291 ± 0.029 mPa·s
308.15 K, 101 kPa, x1 = 0.017	1.654 ± 0.018 mPa·s
308.15 K, 101 kPa, x1 = 0.01781	1.535 ± 0.035 mPa·s
308.15 K, 101 kPa, x1 = 0.0224	2.075 ± 0.017 mPa·s
308.15 K, 101 kPa, x1 = 0.0279	2.588 ± 0.06 mPa·s
308.15 K, 101 kPa, x1 = 0.0339	3.8 ± 0.46 mPa·s
308.15 K, 101 kPa, x1 = 0.0354	3.655 ± 0.089 mPa·s
308.15 K, 101 kPa, x1 = 0.05	8.69 ± 1.1 mPa·s
308.15 K, 101 kPa, x1 = 0.05167	6.396 ± 0.16 mPa·s
308.15 K, 101 kPa, x1 = 0.0732	26.67 ± 3.2 mPa·s and 27.9 ± 3.4 mPa·s
313.15 K, 100 kPa, x1 = 0.0009	0.7866 ± 0.0076 mPa·s
313.15 K, 101 kPa, x1 = 0.00581	0.82 ± 0.1 mPa·s
313.15 K, 101 kPa, x1 = 0.013	1.2 ± 0.14 mPa·s
313.15 K, 101 kPa, x1 = 0.0339	3.25 ± 0.39 mPa·s
313.15 K, 101 kPa, x1 = 0.05	6.35 ± 0.77 mPa·s and 6.35 ± 0.79 mPa·s
313.15 K, 101 kPa, x1 = 0.0732	21.32 ± 2.6 mPa·s and 25.87 ± 3.1 mPa·s
313.16 K, 101.3 kPa, x1 = 0.013	1.193 ± 0.032 mPa·s
313.16 K, 101.3 kPa, x1 = 0.073	21.28 ± 0.57 mPa·s
318.15 K, 100 kPa, x1 = 0.001818	0.657 ± 0.014 mPa·s
318.15 K, 100 kPa, x1 = 0.002681	0.683 ± 0.015 mPa·s
318.15 K, 100 kPa, x1 = 0.003594	0.709 ± 0.015 mPa·s
318.15 K, 100 kPa, x1 = 0.004482	0.733 ± 0.016 mPa·s
318.15 K, 100 kPa, x1 = 0.00626	0.783 ± 0.017 mPa·s
318.15 K, 100 kPa, x1 = 0.007149	0.805 ± 0.017 mPa·s
318.15 K, 100 kPa, x1 = 0.008888	0.86 ± 0.02 mPa·s
318.15 K, 101 kPa, x1 = 0.00581	0.74 ± 0.09 mPa·s
318.15 K, 101 kPa, x1 = 0.00722	0.771 ± 0.016 mPa·s
318.15 K, 101 kPa, x1 = 0.01077	0.9 ± 0.02 mPa·s
318.15 K, 101 kPa, x1 = 0.013	1.06 ± 0.13 mPa·s
318.15 K, 101 kPa, x1 = 0.01432	0.984 ± 0.022 mPa·s
318.15 K, 101 kPa, x1 = 0.01785	1.164 ± 0.026 mPa·s
318.15 K, 101 kPa, x1 = 0.02128	1.431 ± 0.032 mPa·s
318.15 K, 101 kPa, x1 = 0.0221	1.51 ± 0.18 mPa·s
318.15 K, 101 kPa, x1 = 0.0339	2.84 ± 0.34 mPa·s
318.15 K, 101 kPa, x1 = 0.03502	2.618 ± 0.064 mPa·s
318.15 K, 101 kPa, x1 = 0.05	5.04 ± 0.61 mPa·s and 5.1 ± 0.63 mPa·s
318.15 K, 101 kPa, x1 = 0.0732	17.2 ± 2.1 mPa·s and 17.98 ± 2.2 mPa·s
323.15 K, 101 kPa, x1 = 0.00581	0.66 ± 0.08 mPa·s
323.15 K, 101 kPa, x1 = 0.013	0.98 ± 0.12 mPa·s
323.15 K, 101 kPa, x1 = 0.0221	1.36 ± 0.16 mPa·s
323.15 K, 101 kPa, x1 = 0.0339	2.52 ± 0.3 mPa·s
323.15 K, 101 kPa, x1 = 0.05	4.78 ± 0.58 mPa·s and 4.82 ± 0.59 mPa·s
323.15 K, 101 kPa, x1 = 0.0732	14.07 ± 1.7 mPa·s and 16.78 ± 2 mPa·s

[F-].[K+] + O
Conditions	viscosity [mPa·s]
298.15 K, 100 kPa, x1 = 0.02	1.005 ± 0.03
298.15 K, 100 kPa, x1 = 0.03	1.133 ± 0.034
298.15 K, 100 kPa, x1 = 0.07	1.53 ± 0.045
298.15 K, 100 kPa, x1 = 0.1	2.16 ± 0.064
298.15 K, 100 kPa, x1 = 0.2	3.23 ± 0.096
303.15 K, 101 kPa, x1 = 0.002	0.808 ± 0.007
303.15 K, 101 kPa, x1 = 0.005	0.828 ± 0.007
303.15 K, 101 kPa, x1 = 0.009	0.849 ± 0.008
308.15 K, 101 kPa, x1 = 0.002	0.735 ± 0.007
308.15 K, 101 kPa, x1 = 0.005	0.754 ± 0.007
308.15 K, 101 kPa, x1 = 0.009	0.778 ± 0.007
313.15 K, 101 kPa, x1 = 0.005	0.687 ± 0.006
313.15 K, 101 kPa, x1 = 0.009	0.709 ± 0.007
318.15 K, 101 kPa, x1 = 0.005	0.632 ± 0.006
318.15 K, 101 kPa, x1 = 0.009	0.651 ± 0.006
323.15 K, 100 kPa, x1 = 0.02	0.5955 ± 0.018
323.15 K, 100 kPa, x1 = 0.03	0.7039 ± 0.021
323.15 K, 100 kPa, x1 = 0.07	0.9529 ± 0.029
323.15 K, 100 kPa, x1 = 0.1	1.35 ± 0.04
323.15 K, 100 kPa, x1 = 0.2	2.021 ± 0.06
